Reference: patent US20230346764A1, “Methods and Compositions for Treating Pruritus, Xerosis, and Associated Disease Using CCR3-Inhibitors” (Alkahest, Inc., priority 2017, published 2023)

Legend:
Half-life of Compound 1 = conditions: read-out: t½ (converted)
SKH-1 Elite mice = test: Oxazolone model of chronic skin inflammation: blood lymphocyte and white blood cell counts; assay type: in vivo, mouse; conditions: day 29; PO; Compound 1 30 mg/kg b.i.d., Dexamethasone 1.5 mg/kg q.d.
Procedure: FIGS. 9A and 9B report the effects on blood lymphocyte (FIG. 9A) and white blood cell (WBC) (FIG. 9B) levels in mice treated as in FIG. 8. Lymphocyte level reduction was severe with dexamethasone treated mice and less so with Compound 1 treatment.
The Oxazolone model of chronic skin inflammation, was tested using Compound 1 and a known anti-inflammatory, dexamethasone. SKH-1 Elite mice were sensitized with 10 µL of a high dose of topical Oxazolone (5% wt/vol in 100% EtOH) on their back and a subsequent chronic inflammation was triggered using low doses of topical Oxazolone (0.1% wt/vol in 100% EtOH) every other day on both flanks. […]
Three hundred (300) µL of whole blood in 10 mM EDTA freshly collected at day 29 of the study and erythrocytes was analyzed for counting of lymphocytes (FIG. 9A) and white blood cells (WBC) (FIG. 9B) using an Advia - 120 hematology analyzer. Lymphocyte and white blood cell (WBC) populations were quantified for each treatment group (n=3, 6, 8, 8, 8, 6, respectively). All data are mean ± s.e.m. and statistical significance was assessed using one-way ANOVA followed by Tukey’s multiple comparisons test with the following adjusted p-value thresholds: <0.05 (*), < 0.01 (**), < 0.001 (***) and <0.0001 (****).

Structure (SMILES) | half-life (Half-life of Compound 1) | blood lymphocyte level reduction (SKH-1 Elite mice)
Cc1cc(C(=O)N(C)C)cc(NC(=O)[C@H]2CCC(=O)N2C2CCN(Cc3ccc(Cl)c(C)c3)CC2)n1 [Compound 1] | 18 h | 
C[C@@H]1C[C@H]2[C@@H]3CCC4=CC(=O)C=C[C@]4(C)[C@@]3(F)[C@@H](O)C[C@]2(C)[C@@]1(O)C(=O)CO [Dexamethasone] |  | severe
